Test system: panel of 484 cancer cell lines
Experiment: PRISM cancer cell line profiling, 5 days
Type: cell-based
Parameters: AUC: unit not given beside the values
Protocol: Cancer cell line profiling was performed using the Broad’s PRISM platform. Cell treatment and data analysis were performed as described in Yu et al[42]. Raw Luminex signal was converted to AUC values for each cell line as described. The resulting AUC profile for each compound was modeled against DepMap using the limma package in R[71]. Because hotspot mutation analysis was performed against DepMap, TP53 annotations in Fig. 6c,d are directly from DepMap.

CN1CCN(CCC(=O)Nc2ccc3c(=O)n(CC4(O)CCN(C(=O)[C@H](CCCNC(=O)c5ccc6c(Cl)c7c(nc6c5)CCCC7)Cc5ccccc5)CC4)cnc3c2)CC1 [XL177B]
AUC (8MGBA_CENTRAL_NERVOUS_SYSTEM): 1.054
AUC (22RV1_PROSTATE): 1.093
AUC (42MGBA_CENTRAL_NERVOUS_SYSTEM): 1.146
AUC (253JBV_URINARY_TRACT): 1.057
AUC (253J_URINARY_TRACT): 1.086
AUC (639V_URINARY_TRACT): 1.062
AUC (647V_URINARY_TRACT): 1.143
AUC (769P_KIDNEY): 1.004
AUC (786O_KIDNEY): 1.051
AUC (5637_URINARY_TRACT): 0.9181
AUC (8305C_THYROID): 1.192
AUC (8505C_THYROID): 0.9816
AUC (2313287_STOMACH): 1.329
AUC (A101D_SKIN): 1.213
AUC (A172_CENTRAL_NERVOUS_SYSTEM): 1.079
AUC (A204_SOFT_TISSUE): 1.022
AUC (A375_SKIN): 1.179
AUC (A549_LUNG): 1.079
AUC (A673_BONE): 1.28
AUC (A704_KIDNEY): 1.217
AUC (A2058_SKIN): 1.197
AUC (A2780_OVARY): 1.076
AUC (ABC1_LUNG): 1.075
AUC (ACCMESO1_PLEURA): 0.9927
AUC (ACHN_KIDNEY): 1.273
AUC (AGS_STOMACH): 1.102
AUC (AN3CA_ENDOMETRIUM): 1.099
AUC (ASPC1_PANCREAS): 1.162
AUC (BC3C_URINARY_TRACT): 1.114
AUC (BCPAP_THYROID): 1.195
AUC (BECKER_CENTRAL_NERVOUS_SYSTEM): 1.058
AUC (BEN_LUNG): 1.091
AUC (BFTC905_URINARY_TRACT): 1.11
AUC (BFTC909_KIDNEY): 1.1037
AUC (BHT101_THYROID): 1.056
AUC (BICR6_UPPER_AERODIGESTIVE_TRACT): 0.9836
AUC (BICR16_UPPER_AERODIGESTIVE_TRACT): 1.161
AUC (BICR31_UPPER_AERODIGESTIVE_TRACT): 0.9322
AUC (BICR56_UPPER_AERODIGESTIVE_TRACT): 0.9864
AUC (BT474_BREAST): 1.187
AUC (BT549_BREAST): 0.9575
AUC (BXPC3_PANCREAS): 1.32
AUC (CADOES1_BONE): 1.116
AUC (CAKI1_KIDNEY): 1.162
AUC (CAL12T_LUNG): 1
AUC (CAL27_UPPER_AERODIGESTIVE_TRACT): 1.104
AUC (CAL29_URINARY_TRACT): 1.1383
AUC (CAL51_BREAST): 1.013
AUC (CAL54_KIDNEY): 1.167
AUC (CAL62_THYROID): 1.094
AUC (CAL78_BONE): 1.0528
AUC (CAL120_BREAST): 0.9632
AUC (CALU1_LUNG): 0.8074
AUC (CALU6_LUNG): 1.057
AUC (CAMA1_BREAST): 1.095
AUC (CAOV3_OVARY): 1.1
AUC (CAPAN2_PANCREAS): 1.138
AUC (CCFSTTG1_CENTRAL_NERVOUS_SYSTEM): 0.9645
AUC (CFPAC1_PANCREAS): 1.136
AUC (CHL1_SKIN): 1.081
AUC (CJM_SKIN): 1.284
AUC (CL34_LARGE_INTESTINE): 1.203
AUC (COLO668_LUNG): 1.113
AUC (COLO679_SKIN): 1.002
AUC (COLO680N_OESOPHAGUS): 1.0645
AUC (COLO741_SKIN): 1.159
AUC (COLO783_SKIN): 1.1
AUC (COLO792_SKIN): 1.078
AUC (COLO800_SKIN): 1.008
AUC (CORL23_LUNG): 1.07
AUC (CORL105_LUNG): 1.1478
AUC (COV362_OVARY): 1.091
AUC (COV434_OVARY): 0.9992
AUC (DANG_PANCREAS): 1.066
AUC (DAOY_CENTRAL_NERVOUS_SYSTEM): 0.9946
AUC (DBTRG05MG_CENTRAL_NERVOUS_SYSTEM): 1.141
AUC (DETROIT562_UPPER_AERODIGESTIVE_TRACT): 1.072
AUC (DKMG_CENTRAL_NERVOUS_SYSTEM): 1.0187
AUC (DMS273_LUNG): 1.134
AUC (DU145_PROSTATE): 1.137
AUC (DV90_LUNG): 0.9062
∆ (AUC, TP53 mutation vs WT; decreased sensitivity) (DepMap TP53 mutation annotation): not significantly associated
AUC (EBC1_LUNG): 1.133
AUC (ECGI10_OESOPHAGUS): 1.109
AUC (EFM192A_BREAST): 0.9815
AUC (EFO21_OVARY): 1.192
AUC (EFO27_OVARY): 1.165
AUC (EN_ENDOMETRIUM): 1.137
AUC (ES2_OVARY): 1.077
AUC (ESS1_ENDOMETRIUM): 1.338
AUC (EWS502_BONE): 1.036
AUC (FADU_UPPER_AERODIGESTIVE_TRACT): 1.234
AUC (FTC133_THYROID): 0.9765
AUC (FTC238_THYROID): 0.9864
AUC (G292CLONEA141B1_BONE): 1.035
AUC (G361_SKIN): 1.116
AUC (G401_SOFT_TISSUE): 0.7376
AUC (G402_SOFT_TISSUE): 0.8902
AUC (GAMG_CENTRAL_NERVOUS_SYSTEM): 1.162
AUC (GB1_CENTRAL_NERVOUS_SYSTEM): 1.065
AUC (GCIY_STOMACH): 0.9556
AUC (GCT_SOFT_TISSUE): 1.093
AUC (GI1_CENTRAL_NERVOUS_SYSTEM): 0.984
AUC (GMS10_CENTRAL_NERVOUS_SYSTEM): 0.9403
AUC (GOS3_CENTRAL_NERVOUS_SYSTEM): 0.9659
AUC (GP2D_LARGE_INTESTINE): 1.185
AUC (H4_CENTRAL_NERVOUS_SYSTEM): 1.05
AUC (HARA_LUNG): 1.202
AUC (HCC15_LUNG): 1.143
AUC (HCC38_BREAST): 1.103
AUC (HCC44_LUNG): 1.112
AUC (HCC56_LARGE_INTESTINE): 1.103
AUC (HCC78_LUNG): 1.106
AUC (HCC95_LUNG): 1.096
AUC (HCC366_LUNG): 1.065
AUC (HCC827_LUNG): 0.9535
AUC (HCC1143_BREAST): 1.163
AUC (HCC1195_LUNG): 0.8866
AUC (HCC1359_LUNG): 1.197
AUC (HCC1419_BREAST): 1.107
AUC (HCC1428_BREAST): 0.9597

— paper PMC7093416, “Selective USP7 inhibition elicits cancer cell killing through a p53-dependent mechanism” (Scientific Reports, 2020)
